Test results reported in patent US20140271680A1, “METHODS AND PHARMACEUTICAL COMPOSITIONS FOR TREATMENT OF PULMONARY HYPERTENSION” (UNIVERSITE PARIS-EST CRETEIL VAL DE MARNE, priority 2011, published 2014).

Columns and labels:
[1] = test system: CCR5 knock-in (KICCR5) mice; test: hypoxic pulmonary hypertension in CCR5 knock-in mice (chronic hypoxia 9% O2); type: in vivo; details: Maraviroc 200 mg/kg/day
Source text: To assess the inhibitory effects of the CCR5 antagonist Maraviroc on development of pulmonary hypertension in mice, the inventors used CCR5 knock-in mice in which the murine CCR5 gene was replaced by the human CCR5 gene. CCR5 knock-in mice were used in these experiments because Maraviroc binds to the human CCR5 but not to the murine CCR5 protein.
Male mice (12 months old), were exposed to chronic hypoxia (9% O2) in a ventilated chamber (Biospherix, New York, N.Y.). Mice were anesthetized with ketamine (60 mg/Kg) and xylazine (10 mg/Kg) intraperitoneally. A 26-gauge needle connected to a pressure transducer was inserted into the right ventricle, and right ventricular systolic pressure (RVSP) was recorded. After the assessment of hemodynamic parameters, all mice were sacrificed by cardiac puncture and exsanguinations. The heart was dissected out and weighed for calculation of the Fulton index (ratio of right ventricular free wall weight over the sum of the septum plus left ventricular free wall weights: RV/LV+S). The left lung was inflated and fixed with formalin buffer for assessments of pulmonary vessel muscularization and of PA-SMC proliferation using Ki67 immunostaining

wild-type (WT) mice = test: hypoxic pulmonary hypertension in wild-type mice (chronic hypoxia 9% O2); type: in vivo; details: Maraviroc 200 mg/kg/day
[2] = test system: human pulmonary-artery smooth muscle cells (PA-SMCs); test: CCL5-stimulated proliferation of human pulmonary-artery smooth muscle cells (MTT assay); type: cell-based; details: 48 h with CCL5 and Maraviroc, FIG. 4
Protocol: The effects of Maraviroc on cell proliferation was investigated in primary cultures of human pulmonary-artery smooth muscle cells (PA-SMCs) collected from lung tissue samples of patients undergoing lung resection surgery. Cell proliferation was assessed by using the tetrazolium salt (MTT) assay (Sigma, Lyon, France) during conditions of stimulation with the CCR5 ligand CCL5. Human PA-SMCs were seeded onto 24-well for 48 h. PA-SMCs were synchronized for 48 h in media without serum prior cell proliferation stimulation in presence of CCL5 or CCL5 and Maraviroc. 48 hours after, MTT (100 μg/mL) was added and incubated for 4 h. The media was removed and crystals formed were dissolved in […] of dimethylsulfoxide (DMSO, Sigma) and the mixture was shaken for a few minutes to achieve complete dissolution. Aliquots (200 μL) of the resulting solutions were transferred to 96-well plates and absorbance was recorded at 520 nm using the Microplate Spectrophotometer System.

## Cc1nnc(C(C)C)n1[C@@H]1C[C@H]2CC[C@@H](C1)N2CC[C@H](NC(=O)C1CCC(F)(F)CC1)c1ccccc1 [Maraviroc, 4,4-difluoro-N-{(1S)-3-[3-(3-isopropyl-5-methyl-4H-1,2,4-triazol-4-yl)-8-azabicyclo[3.2.1]oct-8-yl]-1-phenylpropyl}cyclohexanecarboxamide]
[1]; FIG. 3A
  Right ventricular systolic pressure (RVSP): reduction
[1]; FIG. 3B
  Fulton index: reduction
[1]; FIG. 3C
  % of muscularized vessels: reduction
[1]; FIG. 3D
  proliferative cells detected by ki67 immunostaining: reduction
wild-type (WT) mice; FIG. 3A
  Right ventricular systolic pressure (RVSP): not in WT mice
wild-type (WT) mice; FIG. 3D
  proliferative cells detected by ki67 immunostaining: not in WT mice
[2]
  Proliferation of human pulmonary artery smooth muscle cells stimulated by the CCR5 ligand CCL5: significantly reduced
